{
  "source": "patent US20030114358A1",
  "about": "“Use of compatible solutes as inhibitors of the enzymatic decomposition of macromolecular biopolymers” (priority 2000, published 2003)",
  "type_in_all_cases": "biochemical",
  "key": {"[1]": {"system": "heavy chains of a human antibody (IgG)", "assay": "Limited proteolysis of human IgG by pepsin, quantified in 12% SDS gels", "details": "0.5 M solute; 0.5 mg/ml antibody, 5 μg/ml pepsin, 37° C., 100 mM sodium acetate pH 3; FIG. 1", "procedure": "Limited proteolyses of human IgG were performed at an antibody concentration of 0.5 mg/ml and a pepsin concentration of 5 μg/ml at 37° C. in 100 mM sodium acetate, pH 3. The incubations were performed without additions under 0.5 M ectoine, under 0.5 M hydroxyectoine, and under a mixture of 0.25 M ectoine and 0.25 M hydroxyectoine. The course of the limited proteolyses was quantified subsequent to the incubations in 12% SDS gels under reducing conditions.\nLanes 1, 5, 9: with water; lanes 2, 6, 10: with ectoine; lanes 3, 7, 11: with ectoine and hydroxyectoine; lanes 4, 8, 12; with hydroxyectoine; lanes 1, 2, 3, 4: without incubation; lanes 5, 6, 7, 8: after 15 min of incubation; lanes 9, 10, 11, 12: after 180 min of incubation."}, "human IgG": {"system": "human IgG", "assay": "ELISA residual signal after pepsin pretreatment of human IgG", "details": "for Residual signal in ELISA, pretreated antibody human IgG: two hours at 37° C.", "procedure": "(§1) The inhibition by ectoine of the proteolysis of antibodies was additionally shown by enzyme-linked immunosorbent assay (ELISA). Thus, 96-well ELISA plates were coated over night with 0.5 μg of human IgG in 100 μl of 0.9% NaCl at 4° C. Subsequently, the plates were washed three times in 50 mM Tris, 0.8% NaCl, 0.020% KCl, pH 7.4, C(T-TBS), and blocked with 200 μl of 1% gelatin in TBS for 2 hours at 37° C. After three washes in T-TBS, an incubation was performed with monoclonal mouse anti-human IgG diluted 1:250 in TBS at 50 μl per well for one hour at 37° C. After four washes with T-TBS, incubation was performed with a peroxidase-conjugated rabbit anti-mouse antibody diluted 1:5000 in TBS at 100 μl per well for one hour at 37° C. After four additional washes, the enzyme reaction was performed by adding 100 μl of substrate per well. As the substrate was used 4.8 mg of phenylene diamine in 3 ml of 0.2 M Na2HPO4, 3 ml of 0.1 M citric acid, 6 ml of water, and 5 μl of H2O2. The reaction was stopped after about 10 minutes by acidification with 100 μl per well of 0.07 M sulfuric acid, and the plates were quantified in an ELISA autoreader. Prior to the experiment, all three protein components were proteolyzed by pepsin for two hours at 37° C. with or without the addition of 0.5 M ectoine. […] The antibody conjugate was not attacked by pepsin. The treatment was performed in an analogous manner with hydroxyectoine, proline and betaine."}, "[2]": {"system": "monoclonal mouse anti-human IgG", "assay": "ELISA residual signal after pepsin pretreatment of monoclonal mouse antibody", "details": "for Residual signal in ELISA, pretreated antibody monoclonal mouse antibody: two hours at 37° C.", "procedure": "as §1"}, "[3]": {"system": "peroxidase-conjugated rabbit anti-mouse antibody", "assay": "ELISA residual signal after pepsin pretreatment of peroxidase conjugate", "details": "two hours at 37° C.", "procedure": "as §1, with “The treatment was performed in an analogous manner with hydroxyectoine, proline and betaine.” left out"}, "pepsin": {"molecular_target": "pepsin (Homo sapiens, UniProt P0DJD8)", "sequence (P0DJD8 63-388)": "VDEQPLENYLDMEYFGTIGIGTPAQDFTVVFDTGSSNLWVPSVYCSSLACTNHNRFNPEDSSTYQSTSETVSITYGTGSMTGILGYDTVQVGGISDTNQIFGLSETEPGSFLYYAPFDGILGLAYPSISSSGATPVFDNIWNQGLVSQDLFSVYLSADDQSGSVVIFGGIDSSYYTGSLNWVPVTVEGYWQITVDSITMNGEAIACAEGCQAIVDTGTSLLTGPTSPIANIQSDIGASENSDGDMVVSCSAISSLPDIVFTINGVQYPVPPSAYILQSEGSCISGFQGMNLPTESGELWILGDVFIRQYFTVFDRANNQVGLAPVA", "assay": "Pepsin activity by spectrophotometry on hydrolysis of a synthetic hexapeptide", "details": "substrate Leu-Ser-p-NitroPhe-Nle-Ala-Leu methyl ester; enzyme-kinetic measurements", "procedure": "In principle, the experiments allow for two possible explanations. On the one hand, the compatible solutes could inhibit the protease. On the other hand, the solute could prevent the attack of the protease according to the invention for steric reasons through stabilization of the native, more compact conformation of the antibody molecule. Therefore, the effect of ectoine and hydroxyectoine on the activity of pepsin was determined by spectrophotometry on the hydrolysis of a synthetic low-molecular weight hexapeptide [E. Schinaith: Clin. Biochem. 22, 91-98 (1989)]. […] This is a clear indication of the fact that the inhibition of the antibody proteolyses is to be attributed to steric effects according to the invention."}, "[4]": {"details": "with ectoine (0.5 M) and pepsin"}, "[5]": {"details": "with ectoine (0.5 M), without pepsin"}},
  "data": [
    {"smiles": "CC1=NCC[C@@H](C(=O)O)N1", "note": "[ectoine]", "values": [
      {"measurement": "hydrolysis of the heavy chain of human IgG by pepsin", "setting": "[1]", "result": "inhibited significantly"},
      {"measurement": "protection of human IgG against proteolytic digest by pepsin", "setting": "human IgG; 0.5 M ectoine, ELISA", "result": "effectively protected"},
      {"measurement": "Residual signal in ELISA, pretreated antibody human IgG", "setting": "human IgG; [4]", "result": 91, "unit": "%"},
      {"measurement": "Residual signal in ELISA, pretreated antibody human IgG", "setting": "human IgG; [5]", "result": 85, "unit": "%"},
      {"measurement": "protection of monoclonal mouse antibody against proteolytic digest by pepsin", "setting": "[2]; 0.5 M ectoine, ELISA", "result": "effectively protected"},
      {"measurement": "Residual signal in ELISA, pretreated antibody monoclonal mouse antibody", "setting": "[2]; [4]", "result": 98, "unit": "%"},
      {"measurement": "Residual signal in ELISA, pretreated antibody monoclonal mouse antibody", "setting": "[2]; [5]", "result": 97, "unit": "%"},
      {"measurement": "Residual signal in ELISA, pretreated antibody peroxidase conjugate", "setting": "[3]; [4]", "result": 121, "unit": "%"},
      {"measurement": "Residual signal in ELISA, pretreated antibody peroxidase conjugate", "setting": "[3]; [5]", "result": 98, "unit": "%"},
      {"measurement": "inhibition of the protease pepsin", "setting": "pepsin", "result": "neither ectoine nor hydroxyectoine inhibits the protease"}
    ]},
    {"smiles": "CC1=NC[C@H](O)[C@@H](C(=O)O)N1", "note": "[hydroxyectoine]", "values": [
      {"measurement": "hydrolysis of the heavy chain of human IgG by pepsin", "setting": "[1]", "result": "inhibited significantly"},
      {"measurement": "inhibition of the protease pepsin", "setting": "pepsin", "result": "neither ectoine nor hydroxyectoine inhibits the protease"}
    ]}
  ]
}
